Molecular target: T1, human ferroportin (Homo sapiens, UniProt Q9NP59)
T1 construct: expressed in transfected cells
T1 sequence (Q9NP59 1-571): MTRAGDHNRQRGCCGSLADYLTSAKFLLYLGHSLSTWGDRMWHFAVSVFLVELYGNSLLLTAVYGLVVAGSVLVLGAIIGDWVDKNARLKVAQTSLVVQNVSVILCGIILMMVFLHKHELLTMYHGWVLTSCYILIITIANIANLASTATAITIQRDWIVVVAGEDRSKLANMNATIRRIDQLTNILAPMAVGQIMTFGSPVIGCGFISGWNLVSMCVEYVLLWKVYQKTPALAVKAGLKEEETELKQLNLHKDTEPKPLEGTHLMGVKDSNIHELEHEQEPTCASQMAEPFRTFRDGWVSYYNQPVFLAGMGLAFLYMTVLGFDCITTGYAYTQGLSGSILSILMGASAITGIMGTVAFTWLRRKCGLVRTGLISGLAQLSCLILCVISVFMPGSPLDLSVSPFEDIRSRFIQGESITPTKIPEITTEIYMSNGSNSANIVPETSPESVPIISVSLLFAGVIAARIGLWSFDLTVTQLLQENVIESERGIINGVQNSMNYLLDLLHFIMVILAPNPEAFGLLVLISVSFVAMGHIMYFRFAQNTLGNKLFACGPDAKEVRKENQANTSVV
Test: ferroportin internalization assay (inhibition of hepcidin-induced internalization of Fpn)
Type: cell-based
Conditions: MDCK-FPN-HaloTag cells, 100 nM hepcidin, overnight incubation; concentration range from 0.04 to 40 μM
How it was run: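 MDCK cells stably expressing human ferroportin–HaloTag were labelled with TMR ligand, then incubated overnight at 37 °C with compound plus 100 nM hepcidin (final). After fixation and nuclear staining, confocal imaging quantified membrane Fpn fluorescence to measure blocking of hepcidin-induced internalization.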

Point of comparison: `COc1cc2c(c3ncccc13)NS(=O)(=O)c1ccc(C(F)(F)F)cc1-2` [Example 589, 12-Methoxy-9-trifluoromethyl-5H-6-thia-4,5-diaza-chrysene 6,6-dioxide], IC50 960 nM. Against it:
- CCC1c2ccc3cccnc3c2NS(=O)(=O)N1C (stereo not shown) [Example 412, 1-Ethyl-2-methyl-1,4-dihydro-2H-3-thia-2,4,5-triaza-phenanthrene 3,3-dioxide] — 2.3-fold higher, 2220 nM
- O=S1(=O)Nc2c(cc(F)c3cccnc23)-c2ccccc21 [Example 324, 12-Fluoro-5H-6-thia-4,5-diaza-chrysene 6,6-dioxide] — within 1.5-fold, 1390 nM
- Cc1cccc2c1S(=O)(=O)Nc1c-2ccc2cccnc12 [Example 335, 7-Methyl-5H-6-thia-4,5-diaza-chrysene 6,6-dioxide] — 4-fold higher, 3880 nM
- O=S(=O)(Nc1ccc(F)c2cccnc12)c1ccccc1 [Example 98, N-(5-Fluoro-quinolin-8-yl)-benzenesulfonamide] — within 1.5-fold, 988 nM
- CN1C(c2ccc(F)c(CN3CCNCC3)c2)c2ccc3cccnc3c2NS1(=O)=O (stereo not shown) [Example 427, 1-(4-Fluoro-3-piperazin-1-ylmethyl-phenyl)-2-methyl-1,4-dihydro-2H-3-thia-2,4,5-triaza-phenanthrene 3,3-dioxide] — 4.7-fold higher, 4490 nM
- N#Cc1ccccc1S(=O)(=O)Nc1cccc2cccnc12 [Example 37, 2-Cyano-N-quinolin-8-yl-benzenesulfonamide] — within 1.5-fold, 815 nM
- Cc1cc(NS(=O)(=O)c2ccccc2)c2ncccc2c1 [Example 77, N-(6-Methyl-quinolin-8-yl)-benzenesulfonamide] — 2.3-fold higher, 2180 nM
- CN1C(c2ccc(F)cn2)c2ccc3cccnc3c2NS1(=O)=O (stereo not shown) [Example 388, 1-(5-Fluoro-pyridin-2-yl)-2-methyl-1,4-dihydro-2H-3-thia-2,4,5-triaza-phenanthrene 3,3-dioxide] — 1.6-fold higher, 1570 nM
- CN1C(c2ccc(C(F)(F)F)cc2)c2ccc3cccnc3c2NS1(=O)=O (stereo not shown) [Example 385, 2-Methyl-1-(4-trifluoromethyl-phenyl)-1,4-dihydro-2H-3-thia-2,4,5-triaza-phenanthrene 3,3-dioxide] — within 1.5-fold, 1370 nM
- O=C(OC1CCCC1)c1ccc2c(c1)-c1cc(Cl)c3cccnc3c1NS2(=O)=O [Example 533, 12-Chloro-6,6-dioxo-5,6-dihydro-6λ*6*-thia-4,5-diaza-chrysene-9-carboxylic acid cyclopentyl ester] — within 1.5-fold, 990 nM
- CN1C(c2ccc(F)c(F)c2)c2ccc3cccnc3c2NS1(=O)=O (stereo not shown) [Example 392, 1-(3,4-Difluoro-phenyl)-2-methyl-1,4-dihydro-2H-3-thia-2,4,5-triaza-phenanthrene 3,3-dioxide] — 3.8-fold lower, 250 nM
- O=S(=O)(Nc1cccc2cccnc12)c1ccccc1C(F)(F)F [Example 43, N-Quinolin-8-yl-2-trifluoromethyl-benzenesulfonamide] — 2.3-fold lower, 419 nM
- O=S(=O)(Nc1ccc(Cl)c2cccnc12)c1cccnc1 [Example 60, Pyridine-3-sulfonic acid (5-chloro-quinolin-8-yl)-amide] — 1.9-fold higher, 1780 nM
- O=S1(=O)Nc2c(c(F)cc3cccnc23)-c2ccccc21 [Example 323, 11-Fluoro-5H-6-thia-4,5-diaza-chrysene 6,6-dioxide] — 3.7-fold higher, 3570 nM
- O=S(=O)(Nc1cc(F)c(F)c2cccnc12)c1ccccc1 [Example 97, N-(5,6-Difluoro-quinolin-8-yl)-benzenesulfonamide] — 8.3-fold higher, 8000 nM
- CC(=O)c1cc2c(c3ncccc13)NS(=O)(=O)N(C)C2c1ccc(F)cc1 (stereo not shown) [Example 402, 1-[1-(4-Fluoro-phenyl)-2-methyl-3,3-dioxo-1,2,3,4-tetrahydro-3λ*6*-thia-2,4,5-triaza-phenanthren-9-yl]-ethanone] — 3.8-fold lower, 250 nM
- CN1C(c2ccc(C(F)(F)F)nc2)c2ccc3cccnc3c2NS1(=O)=O (stereo not shown) [Example 386, 2-Methyl-1-(6-trifluoromethyl-pyridin-3-yl)-1,4-dihydro-2H-3-thia-2,4,5-triaza-phenanthrene 3,3-dioxide] — the same, 960 nM
- O=S1(=O)Nc2c(ccc3c(Cl)ccnc23)-c2ccccc21 [Example 305, 1-Chloro-5H-6-thia-4,5-diaza-chrysene 6,6-dioxide] — 13-fold higher, 12500 nM
- Cc1ccc(S(=O)(=O)Nc2cccc3cccnc23)cc1 [Example 9, 4-Methyl-N-quinolin-8-yl-benzenesulfonamide] — 52-fold higher, 49900 nM
- O=S(=O)(Nc1cccc2cccnc12)Oc1ccccc1 [Example 70, Quinolin-8-yl-sulfamic acid phenyl ester] — 3.4-fold higher, 3250 nM
- O=S1(=O)Nc2c(cc(Cl)c3cccnc23)-c2cc(NC(CO)CO)ccc21 [Example 512, 2-(12-Chloro-6,6-dioxo-5,6-dihydro-6λ*6*-thia-4,5-diaza-chrysen-9-ylamino)-propane-1,3-diol] — 14-fold higher, 13400 nM
- CN(C)CCN(C)c1cc2c(c3ncccc13)NS(=O)(=O)c1ccccc1-2 [Example 552, N-(6,6-Dioxo-5,6-dihydro-6λ*6*-thia-4,5-diaza-chrysen-12-yl)-N,N′,N′-trimethyl-ethane-1,2-diamine] — 5.2-fold higher, 5000 nM
- COc1ccnc2c3c(ccc12)-c1cc(C(F)(F)F)ccc1S(=O)(=O)N3 [Example 109, 1-Methoxy-9-trifluoromethyl-5H-6-thia-4,5-diaza-chrysene 6,6-dioxide] — within 1.5-fold, 979 nM
- O=S(=O)(Nc1cc(OC(F)(F)F)cc2cccnc12)c1ccccc1 [Example 92, N-(6-Trifluoromethoxy-quinolin-8-yl)-benzenesulfonamide] — 9.4-fold higher, 9000 nM
- O=S(=O)(Nc1cc(F)cc2cccnc12)c1c(F)cccc1F [Example 94, 2,6-Difluoro-N-(6-fluoro-quinolin-8-yl)-benzenesulfonamide] — within 1.5-fold, 1000 nM
- O=S(=O)(Nc1cc(F)cc2cccnc12)c1ccccn1 [Example 236, Pyridine-2-sulfonic acid (6-fluoro-quinolin-8-yl)-amide] — 2.5-fold higher, 2370 nM
- CN1C(c2ccc(OC(F)(F)F)cc2)c2ccc3cccnc3c2NS1(=O)=O (stereo not shown) [Example 393, 2-Methyl-1-(4-trifluoromethoxy-phenyl)-1,4-dihydro-2H-3-thia-2,4,5-triaza-phenanthrene 3,3-dioxide] — within 1.5-fold, 1150 nM
- O=S1(=O)Nc2c(ccc3cccnc23)-c2ccc(F)cc21 [Example 330, 8-Fluoro-5H-6-thia-4,5-diaza-chrysene 6,6-dioxide] — 1.7-fold higher, 1620 nM
- COc1cc(NS(=O)(=O)c2ccccc2)c2ncccc2c1 [Example 23, N-(6-Methoxy-quinolin-8-yl)-benzenesulfonamide] — 6.7-fold higher, 6400 nM
- O=S(=O)(Nc1cccc2cccnc12)c1cccc(Cl)c1F [Example 62, 3-Chloro-2-fluoro-N-quinolin-8-yl-benzenesulfonamide] — 1.8-fold higher, 1710 nM
- O=S(=O)(Nc1cccc2cccnc12)c1ccccn1 [Example 85, Pyridine-2-sulfonic acid quinolin-8-ylamide] — 2-fold higher, 1890 nM
- COCCNC(=O)c1ccc2c(c1)-c1cc(Cl)c3cccnc3c1NS2(=O)=O [Example 528, 12-Chloro-6,6-dioxo-5,6-dihydro-6λ*6*-thia-4,5-diaza-chrysene-9-carboxylic acid (2-methoxy-ethyl)-amide] — 4.1-fold higher, 3900 nM
- Cc1ccc(C2c3ccc4cccnc4c3NS(=O)(=O)N2C)cc1 (stereo not shown) [Example 383, 2-Methyl-1-p-tolyl-1,4-dihydro-2H-3-thia-2,4,5-triaza-phenanthrene 3,3-dioxide] — 1.6-fold lower, 600 nM
- O=S(=O)(Nc1cc(F)c(Cl)c2cccnc12)c1ccccc1 [Example 82, N-(5-Chloro-6-fluoro-quinolin-8-yl)-benzenesulfonamide] — 1.6-fold higher, 1500 nM
- O=S1(=O)Nc2c(ccc3cccnc23)-c2cc(C(F)(F)F)ccc21 [Example 78, 9-Trifluoromethyl-5H-6-thia-4,5-diaza-chrysene 6,6-dioxide] — 7.4-fold lower, 130 nM
- O=S(=O)(Nc1cccc2cccnc12)c1ccc(C(F)(F)F)nc1 [Example 89, 6-Trifluoromethyl-pyridine-3-sulfonic acid quinolin-8-ylamide] — 3.8-fold higher, 3690 nM
- NC(=O)c1ccnc2c(NS(=O)(=O)c3ccccc3)cccc12 [Example 539, 8-Benzenesulfonylamino-quinoline-4-carboxylic acid amide] — 11-fold higher, 10400 nM
- COc1cc(NS(=O)(=O)c2ccc(C)cc2N)c2ncccc2c1 [Example 80, 2-Amino-N-(6-methoxy-quinolin-8-yl)-4-methyl-benzenesulfonamide] — 1.6-fold lower, 585 nM
- O=S(=O)(Nc1cccc2cccnc12)c1nccs1 [Example 231, Thiazole-2-sulfonic acid quinolin-8-ylamide] — 4.8-fold higher, 4580 nM
- Cc1cnc2c(NS(=O)(=O)c3ccc(Cl)cc3F)cccc2c1 [Example 71, 4-Chloro-2-fluoro-N-(3-methyl-quinolin-8-yl)-benzenesulfonamide] — within 1.5-fold, 1300 nM
- CN1C(c2ccc(F)c(CNCCN3CCOCC3)c2)c2ccc3cccnc3c2NS1(=O)=O (stereo not shown) [Example 426, [2-Fluoro-5-(2-methyl-3,3-dioxo-1,2,3,4-tetrahydro-3λ*6*-thia-2,4,5-triaza-phenanthren-1-yl)-benzyl]-(2-morpholin-4-yl-ethyl)-amine] — 8.9-fold higher, 8560 nM
- COc1cc2c(c3ncccc13)NS(=O)(=O)c1ccccc1-2 [Example 108, 12-Methoxy-5H-6-thia-4,5-diaza-chrysene 6,6-dioxide] — within 1.5-fold, 990 nM
